The text below walks through data of patent US20230022724A1, “NOVEL IMIDAZOPYRAZINE DERIVATIVES” (Hoffmann-La Roche Inc., priority 2018, published 2023).

Counter-ions that a name gives are not always drawn.

The test system of one assay is Acinetobacter baumannii ATCC17978. Nature of the assay: Antimicrobial susceptibility testing: 90% growth inhibitory concentration (IC90) determination. Type of assay: cell-based. Conditions: 90% growth inhibitory concentration, Acinetobacter baumannii ATCC17978, Iso-Sensitest broth, OD 600 nm over 16 h; formate salt; read-out: ATCC17978 IC90. How it is done: The in vitro antimicrobial activity of the compounds was determined according to the following procedure:
The assay used a 10-points Iso-Sensitest broth medium to measure quantitatively the in vitro activity of the compounds against Acinetobacter baumannii ATCC17978 and Acinetobacter baumannii ATCC17961.
Stock compounds in DMSO were serially twofold diluted (e.g. range from 50 to 0.097 μM final concentration) in 384 wells microtiter plates and inoculated with 49 μl the bacterial suspension in Iso-Sensitest medium to have a final cell concentration of ˜5×10^(5) CFU/ml in a final volume/well of 50 ul/well. Microtiter plates were incubated at 35±2° C.
Bacterial cell growth was determined with the measurement of optical density at λ=600 nm each 20 minutes over a time course of 16 h. Growth inhibition was calculated during the logarithmic growth of the bacterial cells with determination of the concentration inhibiting 50% (IC50) and 90% (IC90) of the growth.
Table 1 provides the 90% growth inhibitory concentrations (IC90) in micromoles per liter of the compounds of present invention obtained against the strain Acinetobacter baumannii ATCC17978 and Acinetobacter baumannii ATCC17961.
On to `COc1ccc(-c2cnc3c(Nc4ccc(C(=O)N5CCC(C(=O)N6CCNC(C(=O)O)C6)CC5)c(Cl)c4)nccn23)cc1F` (centres unmarked) [Example 2, 4-(1-(2-chloro-4-((3-(3-fluoro-4-methoxyphenyl)imidazo [1,2-a]pyrazin-8-yl)amino)benzoyl)piperidine-4-carbonyl) piperazine-2-carboxylic acid, formate salt], for which the IC90 (usually the point of the concentration-response curve where the effect stands at 90%) came to 470 nM.

The same assay, now with this note: 90% growth inhibitory concentration, Acinetobacter baumannii ATCC17978, Iso-Sensitest broth, OD 600 nm over 16 h; hydrochloride; read-out: ATCC17978 IC90.
Turning to `COc1ccc(-c2cnc3c(Nc4ccc(C(=O)N5CCC(C(=O)NCC6CNC6)CC5)c(Cl)c4)nccn23)cc1F` [Example 54, N-(azetidin-3-ylmethyl)-1-[2-chloro-4-[[3-(3-fluoro-4-methoxyphenyl)imidazo[1,2-a]pyrazin-8-yl]amino]benzoyl]piperidine-4-carboxamide;hydrochloride], the IC90 stood at 130 nM.

Staying with this assay, now noted: 90% growth inhibitory concentration, Acinetobacter baumannii ATCC17978, Iso-Sensitest broth, OD 600 nm over 16 h; read-out: ATCC17978 IC90.
Take `N#CCOc1ccc(-c2cnc3c(Nc4ccc(C(=O)N5CCC(C(=O)OCC6CNCCN6)CC5)c(Cl)c4)nccn23)c(F)c1F` (centres unmarked) [Example 83, piperazin-2-ylmethyl 1-[2-chloro-4-[[3-[4-(cyanomethoxy)-2,3-difluorophenyl]imidazo[1,2-a]pyrazin-8-yl]amino]benzoyl]piperidine-4-carboxylate;2,2,2-trifluoroacetic acid]: the concentration for an effect of 90% (IC90) stood at 140 nM.

The same assay, now with this note: Acinetobacter baumannii, ATCC17978, 16 h, 90% growth inhibitory concentration, Acinetobacter baumannii ATCC17978, Iso-Sensitest broth, OD 600 nm over 16 h; read-out: ATCC17978 IC90.
For `N#CCOc1ccc(-c2cnc3c(Nc4ccc(C(=O)N5CCC(C(=O)N6CCNCC6CO)CC5)c(Cl)c4)nccn23)c(Cl)c1F` (centres unmarked) [Example 31, 2-[3-chloro-4-[8-[3-chloro-4-[4-[2-(hydroxymethyl)piperazine-1-carbonyl]piperidine-1-carbonyl]anilino]imidazo[1,2-a]pyrazin-3-yl]-2-fluoro-phenoxy]acetonitrile trifluoroacetate], the concentration for an effect of 90% (IC90) worked out at 320 nM. Still for that read-out and setting: to `N#CCOc1ccc(-c2cnc3c(Nc4ccc(C(=O)N5CCN(CCN6CCC[C@H]6C(=O)O)CC5)c(Cl)c4)nccn23)c(F)c1F` [Example 104, (2-(4-(2-chloro-4-((3-(4-(cyanomethoxy)-2,3-difluorophenyl)imidazo[1,2-a]pyrazin-8-yl)amino)benzoyl)piperazin-1-yl)ethyl)proline trifluoroacetate] belongs 630 nM; to `CNCCN1CCN(C(=O)c2ccc(Nc3nccn4c(-c5ccc(OC)c(F)c5)cnc34)cc2Cl)CC1` [Example 20, (2-chloro-4-((3-(3-fluoro-4-methoxyphenyl)imidazo[1,2-a]pyrazin-8-yl)amino)phenyl)(4-(2-(methylamino)ethyl)piperazin-1-yl)methanone], 130 nM.

Consider `N#CCOc1ccc(-c2cnc3c(Nc4ccc(C(=O)N5CCN(CCN6CCC(C(N)=O)C6)CC5)c(Cl)c4)nccn23)c(F)c1F` (centres unmarked) [Example 89], for which the IC90 was 42 nM. Still for that read-out and setting: to `CN(C)CCN1CCN(C(=O)c2ccc(Nc3nccn4c(-c5ccc(OC(F)F)cc5)cnc34)cc2Cl)CC1` [Example 69, [2-chloro-4-[[3-[4-(difluoromethoxy)phenyl]imidazo[1,2-a]pyrazin-8-yl]amino]phenyl]-[4-[2-(dimethylamino)ethyl]piperazin-1-yl]methanone] belongs 140 nM; to `COc1ccc(-c2cnc3c(Nc4ccc(C(=O)N5CCC(O)(CC(=O)N(C)C)CC5)c(Cl)c4)nccn23)cc1F` [Example 106, 2-(1-(2-chloro-4-((3-(3-fluoro-4-methoxyphenyl)imidazo[1,2-a]pyrazin-8-yl)amino)benzoyl)-4-hydroxypiperidin-4-yl)-N,N-dimethylacetamide], 540 nM; to `CNCC(=O)N1CCN(C(=O)c2ccc(Nc3nccn4c(-c5ccc(OC)c(F)c5)cnc34)cc2Cl)CC1` [Example 18, 1-(4-(2-chloro-4-((3-(3-fluoro-4-methoxyphenyl)imidazo[1,2-a]pyrazin-8-yl)amino)benzoyl)piperazin-1-yl)-2-(methylamino)ethan-1-one hydrochloride], 180 nM. Take `COc1ccc(-c2cnc3c(Nc4ccc(C(=O)N5CCOCC5)cc4)nccn23)cc1` [Example 61, [4-[[3-(4-methoxyphenyl)imidazo[1,2-a]pyrazin-8-yl]amino]phenyl]-morpholin-4-ylmethanone]: the concentration for an effect of 90% (IC90) worked out at 580 nM. Regarding `N#CCOc1ccc(-c2cnc3c(Nc4ccc(C(=O)N5CCN(CCN6CC(c7nnn[nH]7)C6)CC5)c(Cl)c4)nccn23)c(F)c1F` [Example 105, 2-(4-(8-((4-(4-(2-(3-(2H-tetrazol-5-yl)azetidin-1-yl)ethyl)piperazine-1-carbonyl)-3-chlorophenyl)amino)imidazo [1,2-a]pyrazin-3-yl)-2,3-difluorophenoxy)acetonitrile trifluoroacetate], the 90% effect concentration (IC90) came out at 360 nM. Take `COc1ccc(-c2cnc3c(Nc4ccc(C(=O)N5CCN(CCNC6CC6)CC5)c(Cl)c4)nccn23)cc1F` [Example 58, [2-chloro-4-[[3-(3-fluoro-4-methoxyphenyl)imidazo[1,2-a]pyrazin-8-yl]amino]phenyl]-[4-[2-(cyclopropylamino)ethyl]piperazin-1-yl]methanone]: the 90% effect concentration (IC90) turned out to be 330 nM. On the same count and under the same terms, with `COc1ccc(-c2cnc3c(Nc4ccc(C(=O)N5CCC(O)(CCN(C)C)CC5)c(Cl)c4)nccn23)cc1F` [Example 28, (2-chloro-4-((3-(3-fluoro-4-methoxyphenyl)imidazo[1,2-a]pyrazin-8-yl)amino)phenyl)(4-(2-(dimethylamino)ethyl)-4-hydroxypiperidin-1-yl)methanone] the figure was 140 nM; with `COc1ccc(-c2cnc3c(Nc4ccc(C(=O)N5CCC(C(=O)N[C@@H]6CCNC6)CC5)c(Cl)c4)nccn23)c(F)c1F` [Example 39, (R)-1-(2-chloro-4-((3-(2,3-difluoro-4-methoxyphe-nyl)imida-zo[1,2-a]pyrazin-8-yl)amino)benzoyl)-N-(pyrrolidin-3-yl)piperidine-4-carboxamide hydrochloride], 200 nM. As to `N#Cc1cc(Nc2nccn3c(-c4ccc(OC(F)F)cc4)cnc23)ccc1C(=O)N1CCC(CN)CC1` [Example 27, 2-(4-(aminomethyl)piperidine-1-carbonyl)-5-((3-(4-(difluoromethoxy)phenyl)imidazo[1,2-a]pyrazin-8-yl)amino)benzonitrile], the IC90 came to 1500 nM. In the case of `N#CCOc1ccc(-c2cnc3c(Nc4ccc(C(=O)N5CCC(C(=O)N6CCNCC6CO)CC5)c(Cl)c4)nccn23)c(F)c1F` (centres unmarked) [Example 30, 2-[4-[8-[3-chloro-4-[4-[2-(hydroxymethyl)piperazine-1-carbonyl]piperidine-1-carbonyl]anilino]imidazo[1,2-a]pyrazin-3-yl]-2,3-difluoro-phenoxy]acetonitrile trifluoroacetate], the 90% effect concentration (IC90) was found to be 190 nM. Same read-out and setting: with `CNCCNC(=O)C1CCN(C(=O)c2ccc(Nc3nccn4c(-c5ccc(OCC#N)c(F)c5F)cnc34)cc2Cl)CC1` [Example 32, 1-[2-chloro-4-[[3-[4-(cyanomethoxy)-2,3-difluoro-phenyl]imidazo[1,2-a]pyrazin-8-yl]amino]benzoyl]-N-[2-(methylamino)ethyl]piperidine-4-carboxamide trifluoroacetate] the figure was 300 nM; with `COc1ccc(-c2cnc3c(Nc4ccc(C(=O)N5CCCCC5)cc4)nccn23)cc1Cl` [Example 65, [4-[[3-(3-chloro-4-methoxyphenyl)imidazo[1,2-a]pyrazin-8-yl]amino]phenyl]-piperidin-1-ylmethanone], 1500 nM.

In the case of `COc1ccc(-c2cnc3c(Nc4ccc(C(=O)N5CCC(CN)CC5)c(Cl)c4)nccn23)cc1F` [Example 4, (4-(Aminomethyl)piperidin-1-yl)(2-chloro-4-((3-(3-fluoro-4-methoxyphenyl)imidazo[1,2-a]pyrazin-8-yl)amino)phenyl)methanone hydrochloride], the concentration for an effect of 90% (IC90) was 120 nM.

Staying with this assay, now noted: Acinetobacter baumannii, ATCC17978, 16 h, read-out: ATCC17978 IC90.
With `N#CCOc1ccc(-c2cnc3c(Nc4ccc(C(=O)N5CCN(C(=O)[C@@H]6C[C@@H](O)CN6)CC5)c(Cl)c4)nccn23)c(F)c1F` [Example 34, 2-[4-[8-[3-chloro-4-[4-[(2S,4R)-4-hydroxypyrrolidine-2-carbonyl]piperazine-1-carbonyl]anilino]imidazo [1,2-a]pyrazin-3-yl]-2,3-difluroo-phenoxy]acetonitrile formate], the IC90 is 31 nM. Still for that read-out and setting: with `CN(C)CC1CN(CCN2CCN(C(=O)c3ccc(Nc4nccn5c(-c6ccc(OCC#N)c(F)c6F)cnc45)cc3Cl)CC2)C1` [Example 99, 2-[4-[8-[3-chloro-4-[4-[2-[3-[(dimethylamino)methyl]azetidin-1-yl]ethyl]piperazine-1-carbonyl]anilino]imidazo[1,2-a]pyrazin-3-yl]-2,3-difluorophenoxy]acetonitrile; 2,2,2-trifluoroacetic acid] the figure was 170 nM; with `CN(C)CC1CCN(C(=O)c2ccc(Nc3nccn4c(-c5ccc(OCC#N)c(F)c5Cl)cnc34)cc2Cl)CC1` [Example 6, 2-[3-chloro-4-[8-[3-chloro-4-[4-[(dimethylamino)methyl]piperidine-1-carbonyl]anilino]imidazo[1,2-a]pyrazin-3-yl]-2-fluoro-phenoxy]acetonitrile; formic acid], 110 nM.
